Values of other authors, collected in patent US20210361602A1, “DOSING METHODS FOR TREATING INFLAMMATORY BOWEL CONDITIONS” (priority 2020, published 2021).

What was measured:
[1] = enema by prior methods, two patients; Campieri et al. FIG. 4
[2] = orally administered; De Vos et al.

Nc1ccc(O)c(C(=O)O)c1 [5-ASA, 5-aminosalicylic acid]
systemic (plasma) levels of 5-ASA after bowel movement [1]: dramatically lower | levels of 5-ASA in the colon after laxative or colonic lavage [2]: decreased
